In BindingDB's records for patent US10532048 (Seldar Pharma Inc., 2020):

Target: Gastrin-releasing peptide receptor (Homo sapiens, UniProt P30550)
Assay: BB2 Receptor Antagonistic Activity
Procedure: A BB2 receptor binding test was carried out using a membrane sample prepared from a human prostate cancer-derived PC-3 cell. The PC-3 cell was cultured using an RPMI-1640 medium containing 5% fetal bovine serum, and then a membrane sample was prepared by the following methods. The cells detached by a trypsin treatment were added with a 50 mM Tris-HCl buffer (pH 7.4, containing 0.2 mg/ml trypsin inhibitor and 0.2 mg/ml benzamidine), and homogenized by Polytron. The cell suspension was centrifuged at 1,500 rpm for 10 minutes, and the supernatant thus obtained was subjected to 1 hour of ultracentrifugation at 37,000×g. The precipitate was suspended in the aforementioned buffer to a concentration of 0.4 mg protein/ml, and stored at −80° C.The BB2 receptor binding test was carried out by the following method, and the receptor antagonistic activity of a compound to be tested was calculated. […] Non-specific binding was measured using 1 μM of bombesin. […] The radioactivity on the filter was measured using a microplate scintillation counter (Top Count, Perkin-Elmer Co., Ltd.).

Chain of Gastrin-releasing peptide receptor (P30550 whole entry): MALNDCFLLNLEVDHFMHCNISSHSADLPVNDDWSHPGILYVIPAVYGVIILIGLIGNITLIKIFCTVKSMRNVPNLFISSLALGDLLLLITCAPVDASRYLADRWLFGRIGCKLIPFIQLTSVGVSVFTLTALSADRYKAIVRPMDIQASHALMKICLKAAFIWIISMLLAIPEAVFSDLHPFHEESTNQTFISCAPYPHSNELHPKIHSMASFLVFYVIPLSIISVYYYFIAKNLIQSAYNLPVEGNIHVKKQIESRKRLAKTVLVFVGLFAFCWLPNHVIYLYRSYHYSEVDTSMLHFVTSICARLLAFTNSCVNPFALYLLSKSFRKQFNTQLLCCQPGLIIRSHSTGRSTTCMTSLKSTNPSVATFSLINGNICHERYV

O=C(NCCc1ccccc1)[C@@H]1c2ccccc2C(=O)N([C@H](CO)c2ccccc2)[C@H]1c1ccc(Cl)cc1Cl [US10532048, Example 62]
IC50: 18.3 nM
